Measurements reported in BigSolDB 2.1.

Structure (SMILES): CC(C)(O)P1(=O)OCC2(CO1)COP(=O)(C(C)(C)O)OC2 (stereo not given)
- solubility (mole fraction) (in acetic acid, 293.16 K): 0.00691
- solubility (mole fraction) (in acetic acid, 298.15 K): 0.0078
- solubility (mole fraction) (in acetic acid, 303.14 K): 0.00907
- solubility (mole fraction) (in acetic acid, 307.96 K): 0.0104
- solubility (mole fraction) (in acetic acid, 312.97 K): 0.0114
- solubility (mole fraction) (in acetic acid, 318.05 K): 0.0131
- solubility (mole fraction) (in acetic acid, 323.15 K): 0.015
- solubility (mole fraction) (in acetic acid, 328.05 K): 0.0173
- solubility (mole fraction) (in acetic acid, 333.04 K): 0.0196
- solubility (mole fraction) (in acetic acid, 338.14 K): 0.0231
- solubility (mole fraction) (in acetone, 293.6 K): 0.000582
- solubility (mole fraction) (in acetone, 298.44 K): 0.000762
- solubility (mole fraction) (in acetone, 303.35 K): 0.00095
- solubility (mole fraction) (in acetone, 308.29 K): 0.00124
- solubility (mole fraction) (in acetone, 313.27 K): 0.00159
- solubility (mole fraction) (in acetone, 318.4 K): 0.00194
- solubility (mole fraction) (in acetone, 323.3 K): 0.00234
- solubility (mole fraction) (in ethanol, 294.15 K): 0.00153
- solubility (mole fraction) (in ethanol, 297.63 K): 0.00184
- solubility (mole fraction) (in ethanol, 303.05 K): 0.00231
- solubility (mole fraction) (in ethanol, 307.95 K): 0.00269
- solubility (mole fraction) (in ethanol, 313.15 K): 0.00346
- solubility (mole fraction) (in ethanol, 318.16 K): 0.00391
- solubility (mole fraction) (in ethanol, 322.95 K): 0.00476
- solubility (mole fraction) (in ethanol, 327.84 K): 0.00582
- solubility (mole fraction) (in ethanol, 332.93 K): 0.00666
- solubility (mole fraction) (in ethanol, 337.94 K): 0.00846
- solubility (mole fraction) (in methanol, 293.13 K): 0.00585
- solubility (mole fraction) (in methanol, 298.15 K): 0.00665
- solubility (mole fraction) (in methanol, 302.94 K): 0.00751
- solubility (mole fraction) (in methanol, 307.75 K): 0.00875
- solubility (mole fraction) (in methanol, 312.76 K): 0.00998
- solubility (mole fraction) (in methanol, 317.95 K): 0.0117
- solubility (mole fraction) (in methanol, 323.05 K): 0.0136
- solubility (mole fraction) (in water, 293.13 K): 0.00564
- solubility (mole fraction) (in water, 298.01 K): 0.00585
- solubility (mole fraction) (in water, 303.15 K): 0.00607
- solubility (mole fraction) (in water, 308.16 K): 0.00631
- solubility (mole fraction) (in water, 313.05 K): 0.00658
- solubility (mole fraction) (in water, 317.89 K): 0.00692
- solubility (mole fraction) (in water, 323.05 K): 0.00723
- solubility (mole fraction) (in water, 328.13 K): 0.00754
- solubility (mole fraction) (in water, 332.95 K): 0.00793
- solubility (mole fraction) (in water, 337.94 K): 0.00826
- solubility (mole fraction) (in water, 342.86 K): 0.00867
